Measurements taken from ChEMBL document CHEMBL1201862, “PubChem BioAssay data set” (2004).
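Cells were grown in 96-well plates and exposed to each compound for 48 hours at five concentrations; endpoints were interpolated linearly between bracketing concentrations, or set to the highest concentration if not reached. Abbreviation: GI50, concentration required for 50% inhibition of growth.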 Active and inactive are the calls of the source. Rule as the data show it: active = GI50 up to about 1.1 µM and inactive = higher.

Assays:
Assay in all cases: DTP human tumour cell line panel, 48 h
M14 = test system: M14
SNB-19 = test system: SNB-19
MDA-MB-435 = test system: MDA-MB-435
HOP-62 = test system: HOP-62
TK-10 = test system: TK-10
MDA-MB-231 = test system: MDA-MB-231
COLO 205 = test system: COLO 205
HT-29 = test system: HT-29
SF-539 = test system: SF-539
A498 = test system: A498
786-0 = test system: 786-0
U-251 = test system: U-251
RPMI-8226 = test system: RPMI-8226
OVCAR-5 = test system: OVCAR-5
MOLT-4 = test system: MOLT-4
SNB-75 = test system: SNB-75
SK-MEL-2 = test system: SK-MEL-2
ACHN = test system: ACHN
SF-295 = test system: SF-295
Hs-578T = test system: Hs-578T

Row | SMILES | GI50 (M14) | GI50 (SNB-19) | GI50 (MDA-MB-435) | GI50 (HOP-62) | GI50 (TK-10) | GI50 (MDA-MB-231) | GI50 (COLO 205) | GI50 (HT-29) | GI50 (SF-539) | GI50 (A498) | GI50 (786-0) | GI50 (U-251) | GI50 (RPMI-8226) | GI50 (OVCAR-5) | GI50 (MOLT-4) | GI50 (SNB-75) | GI50 (SK-MEL-2) | GI50 (ACHN) | GI50 (SF-295) | GI50 (Hs-578T)
1 | O=C1c2c(ccc3c2CCC3)CC12Cc1ccccc1C2 | 19.8 µM (inactive) | 33.7 µM (inactive) | 13.2 µM (inactive) | 20.9 µM (inactive) | 21.5 µM (inactive) | 22.4 µM (inactive) | 16.6 µM (inactive) | 9.08 µM (inactive) | 12.2 µM (inactive) | 12.4 µM (inactive) | 20.7 µM (inactive) | 22.2 µM (inactive) | 7.38 µM (inactive) | 30 µM (inactive) | 5.04 µM (inactive) | 21.5 µM (inactive) | 21.4 µM (inactive) | 13.7 µM (inactive) | 91.4 µM (inactive) | 21.4 µM (inactive)
2 | O=C1NC(=O)C(F)(n2cc(F)c(=O)[nH]c2=O)C(O)N1 (stereo not given) | > 10 µM (inactive) | > 10 µM (inactive) | > 10 µM (inactive) | > 10 µM (inactive) | > 10 µM (inactive) | > 10 µM (inactive) | > 10 µM (inactive) | > 10 µM (inactive) | > 10 µM (inactive) | > 10 µM (inactive) | > 10 µM (inactive) | > 10 µM (inactive) | > 10 µM (inactive) | > 10 µM (inactive) | > 10 µM (inactive) | > 10 µM (inactive) | > 10 µM (inactive) | > 10 µM (inactive) | > 10 µM (inactive) | > 10 µM (inactive)
3 | COC(=O)Cc1c([C@H]2[C@H](CC(=O)OC)c3ccccc3N2C(C)=O)[nH]c2ccccc12 | > 100 µM (inactive) | > 100 µM (inactive) | > 100 µM (inactive) | > 100 µM (inactive) | > 100 µM (inactive) | > 100 µM (inactive) | 67.1 µM (inactive) | > 100 µM (inactive) | > 100 µM (inactive) | > 100 µM (inactive) | > 100 µM (inactive) | 91.2 µM (inactive) | 33.6 µM (inactive) | > 100 µM (inactive) | 54.8 µM (inactive) | > 100 µM (inactive) | > 100 µM (inactive) | > 100 µM (inactive) | 72.8 µM (inactive) | > 100 µM (inactive)
4 | COCC(/N=C\N1CCCc2ccccc2[C@@H]1CCCCl)C(C)(C)C (stereo not given in full) | 4.55 µM (inactive) | 18.7 µM (inactive) | 11.7 µM (inactive) | 15.3 µM (inactive) | 9.93 µM (inactive) | 3.49 µM (inactive) | 0.586 µM (active) | 1.54 µM (inactive) | 12.1 µM (inactive) | 13.2 µM (inactive) | 7.96 µM (inactive) | 6.89 µM (inactive) | 2.67 µM (inactive) | 13.6 µM (inactive) | 1.71 µM (inactive) | 3.01 µM (inactive) | 17.1 µM (inactive) | 16.9 µM (inactive) | 17.2 µM (inactive) | 0.0184 µM (active)
5 | C[N+](C)(C)CC1CCCC(C[N+](C)(C)C)C1=O (stereo not given) | 0.879 µM (active) | 19 µM (inactive) | 1.8 µM (inactive) | 23.3 µM (inactive) | 1.21 µM (inactive) | 2.01 µM (inactive) | 0.374 µM (active) | 1.3 µM (inactive) | 4.79 µM (inactive) | 9.62 µM (inactive) | 0.661 µM (active) | 3.35 µM (inactive) | 0.0579 µM (active) | 3.52 µM (inactive) | 0.133 µM (active) | 4.7 µM (inactive) | 1.9 µM (inactive) | 0.845 µM (active) | 29.7 µM (inactive) | 13 µM (inactive)
6 | CC(C)(C)OC(=O)NCCCNC1(c2cc3ccccc3s2)CCCCC1 | 12 µM (inactive) | 13.6 µM (inactive) | 14.7 µM (inactive) | 14.4 µM (inactive) | 16.6 µM (inactive) | 17.6 µM (inactive) | 12.3 µM (inactive) | 3.15 µM (inactive) | 18.4 µM (inactive) | 15.6 µM (inactive) | 14.9 µM (inactive) | 21.3 µM (inactive) | 3.84 µM (inactive) | 13.7 µM (inactive) | 12.5 µM (inactive) | 15.6 µM (inactive) | 17.5 µM (inactive) | 19.2 µM (inactive) | 14.8 µM (inactive) | 19.4 µM (inactive)
7 | COC1/C=C\C=C(/C)C(=O)NC2=CC(=O)C(NCCCl)=C(CC(C)CC(OC)C(O)C(C)/C=C(/C)C1OC(N)=O)C2=O (stereo not given) | 0.0724 µM (active) | 0.927 µM (active) | 0.0526 µM (active) | 0.339 µM (active) | 1.77 µM (inactive) | 2 µM (inactive) | < 0.0126 µM (active) | 0.0158 µM (active) | 0.127 µM (active) | 0.873 µM (active) | 0.323 µM (active) | 0.11 µM (active) | 0.0977 µM (active) | 0.594 µM (active) | 0.052 µM (active) | 0.413 µM (active) | 0.147 µM (active) | 0.281 µM (active) | 0.743 µM (active) | 4.89 µM (inactive)
8 | O=c1[nH]c(=O)n(COCCO)c2ccsc12 | > 100 µM (inactive) | 32.4 µM (inactive) | > 100 µM (inactive) | > 100 µM (inactive) | > 100 µM (inactive) | > 100 µM (inactive) | > 100 µM (inactive) | > 100 µM (inactive) | > 100 µM (inactive) | > 100 µM (inactive) | > 100 µM (inactive) | > 100 µM (inactive) | > 100 µM (inactive) | > 100 µM (inactive) | > 100 µM (inactive) | > 100 µM (inactive) | > 100 µM (inactive) | > 100 µM (inactive) | > 100 µM (inactive) | > 100 µM (inactive)
9 | O=C(Nc1cccc2nsnc12)c1cc2c(cc1Cl)Sc1nccn1S2(=O)=O | 18.9 µM (inactive) | 12.1 µM (inactive) | 9.62 µM (inactive) | 1.78 µM (inactive) | 6.01 µM (inactive) | 8.26 µM (inactive) | 18 µM (inactive) | 2.74 µM (inactive) | 3.52 µM (inactive) | 13.6 µM (inactive) | 15.9 µM (inactive) | 5.66 µM (inactive) | 2.26 µM (inactive) | 32.4 µM (inactive) | 2.95 µM (inactive) | 8.02 µM (inactive) | 11.2 µM (inactive) | 12.7 µM (inactive) | 14.1 µM (inactive) | 4.25 µM (inactive)
10 | CC1(C)OCC(C2OC(On3nnc4ccc(Cl)cc43)C3OC(C)(C)OC23)O1 (stereo not given) | > 100 µM (inactive) | > 100 µM (inactive) | > 100 µM (inactive) | > 100 µM (inactive) | > 100 µM (inactive) | > 100 µM (inactive) | > 100 µM (inactive) | > 100 µM (inactive) | > 100 µM (inactive) | 11.7 µM (inactive) | > 100 µM (inactive) | > 100 µM (inactive) | > 100 µM (inactive) | > 100 µM (inactive) | > 100 µM (inactive) | 98.9 µM (inactive) | > 100 µM (inactive) | > 100 µM (inactive) | > 100 µM (inactive) | > 100 µM (inactive)
